{"source": "paper PMC10990149", "about": "(Proceedings of the National Academy of Sciences of the …, 2024)", "target": "T1, DvhD (DVU1020), cytoplasmic fragment (PAS and HD-GYP domains) (Nitratidesulfovibrio vulgaris, UniProt Q72DA9)", "T1 sequence (Q72DA9 374-701)": "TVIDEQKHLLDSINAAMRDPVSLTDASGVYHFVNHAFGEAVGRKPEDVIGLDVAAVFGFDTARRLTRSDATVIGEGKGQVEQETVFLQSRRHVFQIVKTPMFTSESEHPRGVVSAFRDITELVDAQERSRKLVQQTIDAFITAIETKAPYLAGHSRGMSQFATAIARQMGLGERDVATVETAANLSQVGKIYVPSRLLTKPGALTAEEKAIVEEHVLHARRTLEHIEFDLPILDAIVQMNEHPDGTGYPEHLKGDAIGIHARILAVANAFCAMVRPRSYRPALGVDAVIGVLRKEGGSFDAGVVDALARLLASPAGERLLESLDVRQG", "assay": "isothermal titration calorimetry", "assay_type": "binding", "data": [{"smiles": "Nc1nc2c(ncn2[C@@H]2O[C@@H]3CO[P@](=O)(O)O[C@H]4[C@@H](O)[C@H](n5cnc6c(=O)[nH]c(N)nc65)O[C@@H]4CO[P@](=O)(O)O[C@H]3[C@H]2O)c(=O)[nH]1", "note": "[c-di-GMP]", "values": [{"measurement": "Kd", "value": "322 ± 81", "unit": "nM"}]}]}
